The record followed here is BindingDB's records for doi:10.1016/j.bmcl.2007.08.004 (Pfizer, 2007).

The assay deals with T1, 3-hydroxy-3-methylglutaryl-coenzyme A reductase (Rattus norvegicus, UniProt P51639).
T1 sequence (P51639 whole entry): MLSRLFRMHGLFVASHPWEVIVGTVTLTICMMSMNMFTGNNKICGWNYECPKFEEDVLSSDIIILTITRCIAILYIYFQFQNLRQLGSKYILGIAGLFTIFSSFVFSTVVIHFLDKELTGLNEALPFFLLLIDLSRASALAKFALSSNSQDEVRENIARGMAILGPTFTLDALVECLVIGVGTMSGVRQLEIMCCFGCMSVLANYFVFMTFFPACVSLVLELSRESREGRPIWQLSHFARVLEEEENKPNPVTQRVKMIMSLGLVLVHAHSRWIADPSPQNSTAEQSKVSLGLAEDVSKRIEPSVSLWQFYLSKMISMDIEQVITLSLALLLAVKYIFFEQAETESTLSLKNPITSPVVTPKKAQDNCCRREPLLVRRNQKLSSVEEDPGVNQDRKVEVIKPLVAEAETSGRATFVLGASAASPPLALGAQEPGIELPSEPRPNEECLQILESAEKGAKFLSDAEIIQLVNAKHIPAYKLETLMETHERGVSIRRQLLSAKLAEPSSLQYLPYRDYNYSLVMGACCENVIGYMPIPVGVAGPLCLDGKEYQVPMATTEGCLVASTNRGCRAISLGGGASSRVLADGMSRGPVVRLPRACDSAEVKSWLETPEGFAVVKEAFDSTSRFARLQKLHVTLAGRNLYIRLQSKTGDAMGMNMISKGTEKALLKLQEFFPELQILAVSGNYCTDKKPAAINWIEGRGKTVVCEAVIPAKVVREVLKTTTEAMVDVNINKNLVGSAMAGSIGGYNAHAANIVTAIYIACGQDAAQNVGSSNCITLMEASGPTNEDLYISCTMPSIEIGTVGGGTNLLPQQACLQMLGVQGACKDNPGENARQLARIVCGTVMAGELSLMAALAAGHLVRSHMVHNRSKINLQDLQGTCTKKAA
Description: HMG-CoA Reductase In Vitro Assay. The text has this:
Assay for HMG-CoA reductase was based on the conversion of isotopically labeled HMG-CoA to mevalonic acid using rat liver microsomes as enzyme source. The product, [14C]-mevalonic acid was lactonized and separated from excess substrate via an anion ion exchange resin column, and radioactivity was counted on a scintillation counter.

By IC50 is commonly meant the concentration that inhibits the measured activity by half. Read a high IC50 as lower potency. Take `CC(C)c1c(C(=O)N2CCc3ccccc3C2)nn(-c2ccc(F)cc2)c1OC[C@@H](O)C[C@@H](O)CC(=O)O` [(3R,5S)-6-{[1-(4-fluorophenyl)-4-(propan-2-yl)-3-(1,2,3,4-tetrahydroisoquinolin-2-ylcarbonyl)-1H-pyrazol-5-yl]oxy}-3,5-dihydroxyhexanoic acid]: the IC50 came out at 0.01 µM.
